# From patent publication US20040253207A1, “Methods and compositions for prostate epithelial cell differentiation” (Barnes-Jewish Hospital, priority 2002, published 2004)
# *: point of attachment. Decanoyl = CCCCCCCCCC(=O)*; CH2Cl = ClC*
# Key:
# Assay type in all cases: cell-based, human
# [1] = tested on: PSA expression in LNCaP cells; experiment: DHT-stimulated PSA expression in LNCaP cells (anti-PSA immunoblot); conditions: various concentrations of CMK, 24 hours
# Procedure: (§1) Cells (approximately 1×10^6 cells) were seeded in 100 mm cell culture dishes and cultured in RPMI 1640 supplemented with 10% fetal bovine serum at 5% CO2. Subconfluent cells were washed with phosphate buffered saline (PBS), lysed in lysis buffer (Cell Signaling Technology, Beverly, Mass.) and used for cell lysate. For the detection of PDF in conditioned media, subconfluent cells were serum-starved for 24 h. The serum free media were collected and precipitated with 10% trichloroacetic acid. After centrifugation, pellets were dissolved in the buffer which consisted of 8 M urea, 50 mM Tris (pH 8.0) and 0.1% NP-40. Samples were mixed in 5× Laemmli sample buffer with 2% beta-mercaptoethanol, subjected to electrophoresis on a 15% SDS-polyacrylamide gel, and transferred to PVDF membranes. Membranes were blocked with PBS containing 0.1% Tween 20 and 5% non-fat dry milk for 1 h at room temperature and incubated with the appropriate primary antibodies and antisera (1:500-2000) overnight at 4° C. After the membranes were washed three times with PBS containing 0.1% Tween 20, the membranes were incubated with appropriate horse-radish peroxidase-conjugate secondary antibodies (1:2000) for 1 h at 4° C. The protein bands were visualized by chemiluminescence using SuperSignal West Pico ECL kit (PIERCE, Rockford, Ill.). This protocol was used for the detection of PDF, cytokeratin and PSA. […]
# [2] = tested on: proprotein convertases (PCs) in LNCaP, PC3 and DU145 cells; experiment: Proprotein convertase activity assay (cleavage of fluorogenic substrate boc-RVRR-amc); conditions: 100 μM CMK for 24 hours
# Procedure: For determination of cellular PC activity, 30,000 cells were seeded in 48-well plates for 24 hours. The next day, growth medium and CMK were added until a final concentration of 100 μM was reached. After a 24-hour incubation, media were replaced and cells were washed with PBS. Additional 48-well plates were prepared in the same manner for the determination of cell number which was used for normalization. 150 μl of assay medium which consists of RPMI 1640 with 0.25% Triton X-100 for permeabilization and boc-RVRR-amc (100 μM) as a fluorogenic substrate were added to each well. Fluorescence was measured at 360 nm excitation and 460 nm emission wavelengths after 4 h of substrate addition. The data were normalized to cell number. Human recombinant furin (Sigma, St. Louis, Mo.) was used for positive control.
# PC activity in prostate cancer cells and inhibition of PC activity by CMK was next examined. LNCaP, PC3 and DU 145 cells were incubated in the presence or absence of 100 μM CMK for 24 hours. Thereafter, 100 μM fluorogenic substrate, boc-RVRR-amc, was added and cells were incubated for an additional four hours. PC activity was assayed by measuring the cleavage of the fluorogenic substrate.
# [3] = tested on: PDF processing in LNCaP cells; experiment: PC-dependent PDF processing in LNCaP cells, immunoblot for pro-PDF and mature PDF; conditions: various concentrations of CMK, 24 hours
# Procedure: Cells (approximately 1×10^6 cells) were seeded in 100 mm cell culture dishes and cultured in RPMI 1640 supplemented with 10% fetal bovine serum at 5% CO2. Subconfluent cells were washed with phosphate buffered saline (PBS), lysed in lysis buffer (Cell Signaling Technology, Beverly, Mass.) and used for cell lysate. For the detection of PDF in conditioned media, subconfluent cells were serum-starved for 24 h. The serum free media were collected and precipitated with 10% trichloroacetic acid. After centrifugation, pellets were dissolved in the buffer which consisted of 8 M urea, 50 mM Tris (pH 8.0) and 0.1% NP-40. Samples were mixed in 5× Laemmli sample buffer with 2% beta-mercaptoethanol, subjected to electrophoresis on a 15% SDS-polyacrylamide gel, and transferred to PVDF membranes. Membranes were blocked with PBS containing 0.1% Tween 20 and 5% non-fat dry milk for 1 h at room temperature and incubated with the appropriate primary antibodies and antisera (1:500-2000) overnight at 4° C. After the membranes were washed three times with PBS containing 0.1% Tween 20, the membranes were incubated with appropriate horse-radish peroxidase-conjugate secondary antibodies (1:2000) for 1 h at 4° C. The protein bands were visualized by chemiluminescence using SuperSignal West Pico ECL kit (PIERCE, Rockford, Ill.). This protocol was used for the detection of PDF, cytokeratin and PSA.
# PC-dependent PDF processing in LNCaP cells was also examined in the presence of CMK by immunoblotting for PDF. Cells were cultured and serum-starved with and without various concentrations of CMK for 24 hours. Cells and supernatants were electrophoresed on 15% SDS-PAGE. Immunoblots were performed with anti-pro-PDF antibody (˜40 kd pro-PDF form) and anti-PDF antisera (˜17 kd mature PDF form).
# LNCaP cells = experiment: Prostate epithelial cell differentiation markers (cytokeratin immunoblot), LNCaP; conditions: various concentrations of CMK, 72 hours, serum-free RPMI 1640
# Procedure: as §1
substance,measurement,setting,value
decanoyl-Arg-Val-Lys-Arg-chloromethylketone (Decanoyl-RVKR-CH2Cl) [CMK],levels of endogenous PSA,[1]; in the absence of DHT,not affected
same,androgen-induced PSA expression,[1]; in the presence of DHT,inhibited
same,PC activity (cleavage of boc-RVRR-amc),[2],inhibition of PCs
same,cellular PDF,[3]; LNCaP cell lysate,did not affect
same,PDF processing (mature PDF) in LNCaP-conditioned media,[3]; serum-starved,reduction of PDF processing in LNCaP-conditioned media in a dose-dependent manner
same,pro-PDF in LNCaP-conditioned media,[3]; serum-starved,concomitant increase in pro-PDF
same,"expression of cytokeratin 8, 18 and 19",LNCaP cells,down-regulated
same,expression of cytokeratin 14,LNCaP cells,upregulated in a dose-dependent manner
